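Method: 48-hour compound exposure of cells in 96-well plates, five concentrations, linear interpolation of endpoints. Here, GI50 denotes the concentration required for 50% inhibition of growth. TGI marks complete inhibition of growth.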
What was measured:
Assay in all cases: NCI-60 cell line screen, 48 h
M14 melanoma = test system: M14 melanoma
SK-MEL-28 melanoma = test system: SK-MEL-28 melanoma
SK-OV-3 ovarian = test system: SK-OV-3 ovarian
SNB-19 CNS = test system: SNB-19 CNS
SNB-75 CNS = test system: SNB-75 CNS
HS 578T breast = test system: HS 578T breast
OVCAR-8 ovarian = test system: OVCAR-8 ovarian
SF-539 CNS = test system: SF-539 CNS
UO-31 renal = test system: UO-31 renal
UACC-62 melanoma = test system: UACC-62 melanoma

| Structure (SMILES) | GI50 (M14 melanoma) [µM] | TGI (M14 melanoma) [µM] | GI50 (SK-MEL-28 melanoma) [µM] | TGI (SK-MEL-28 melanoma) [µM] | GI50 (SK-OV-3 ovarian) [µM] | TGI (SK-OV-3 ovarian) [µM] | GI50 (SNB-19 CNS) [µM] | TGI (SNB-19 CNS) [µM] | GI50 (SNB-75 CNS) [µM] | TGI (SNB-75 CNS) [µM] | GI50 (HS 578T breast) [µM] | TGI (HS 578T breast) [µM] | GI50 (OVCAR-8 ovarian) [µM] | TGI (OVCAR-8 ovarian) [µM] | GI50 (SF-539 CNS) [µM] | TGI (SF-539 CNS) [µM] | GI50 (UO-31 renal) [µM] | TGI (UO-31 renal) [µM] | GI50 (UACC-62 melanoma) [µM] | TGI (UACC-62 melanoma) [µM] |
| --- | --- | --- | --- | --- | --- | --- | --- | --- | --- | --- | --- | --- | --- | --- | --- | --- | --- | --- | --- | --- |
| C[C@@H](O)[C@H](NC(=O)N[C@@H](CC(N)=O)c1nc([C@@H](N)CO)no1)C(=O)O | > 100 | > 100 | > 100 | > 100 | > 100 | > 100 | > 100 | > 100 | > 100 | > 100 | > 100 | > 100 | > 100 | > 100 | > 100 | > 100 | > 100 | > 100 | > 100 | > 100 |
| CCN(Cc1ccccc1)c1ccc(CO)c(Cl)c1 | 20.1 | > 65.1 | 29.2 | > 100 | 5.78 | 35.6 | 51.4 | > 100 | 13.6 | 69.7 | 23.2 | > 84.9 | 12.1 | > 100 | 30.2 | > 100 | 6.5 | > 100 | 0.104 | 0.695 |
| CCC(=O)Nc1ccccc1C#C/C=C\C#Cc1ccccc1SC | 12 | > 100 | 8.75 | > 100 | 53.7 | > 100 | 43.8 | > 100 | 4.76 | > 100 | 17.1 | > 100 | 12.3 | > 100 | 14.2 | > 100 | 0.838 | 28.6 | 4.04 | > 100 |
| CC1=C(C(=O)Nc2ccc(Cl)c(Cl)c2)C(c2cccc(Cl)c2)NC(=O)N1 (centres undefined) | 7.79 | 16.1 | – | – | 10.6 | 20.7 | 9.52 | 21 | 9.67 | 28.7 | 9.68 | 22.6 | 14.8 | > 37.7 | 6.48 | 13.2 | 8.2 | 15.9 | 5.9 | 12.3 |
| COc1ccc(NC([Se])=NC23CC4CC(CC(C4)C2)C3)cc1 | 1.37 | 3.29 | – | – | 2.45 | 7.43 | 1.86 | 50.6 | 1.54 | 4.5 | 2.08 | 7.89 | 0.645 | 3.71 | 1.89 | 4.19 | 1.74 | 4.11 | 1.43 | 4.96 |
| NC1CCC(Nc2nc(NCc3ccc(-c4ccccc4O)nc3)c3ncn(C4CCCC4)c3n2)CC1 (centres undefined) | 0.0112 | 0.0552 | 0.0211 | 0.0713 | 0.036 | 0.431 | < 0.0147 | 1.32 | 0.0121 | 0.0356 | < 0.011 | 1.34 | – | – | 0.0625 | 0.267 | 0.0759 | 0.545 | < 0.0174 | 0.0593 |

Source: PubChem BioAssay (NCI)
